Measurements taken from US8207314B2, “Tumor antigens for prevention and/or treatment of cancer” (Sanofi Pasteur Limited, priority 2003, dated 2012).

How the values were obtained:
[1] = system: CosA2 cells transfected with BFY3; test: CTL killing of BFY3-transfected cells; assay type: cell-based; settings: CTL generated from BFY3 peptide pools
Method: (§1) In addition to ELISPOT analysis, human T cells activated by BFY3 peptides were assayed for reactivity. Ten pools of peptides consisting often peptides per pool used to generate CTL. These 10 groups of effectors used to kill targets pulsed with corresponding peptide pools. […]

[2] = system: Human PBMC from an HLA-A2.1 positive donor; test: IFN-γ ELISPOT of human T cells activated with BFY3 peptide pools and deconvolution to single peptides; assay type: cell-based; settings: BFY3 nonamer peptides; listing = result
From the text: Human PBMC from an HLA-A2.1 positive donor designated AP31 were activated with autologous dendritic cells pulsed with different pools of 9-mer peptides from the BFY3 antigen (see Table I for list). The activated T cells were re-stimulated after 12 days with activated autologous CD40-ligand-activated B cells pulsed with the same respective peptide pools for another 8 to 10 days. This secondary activation was repeated 2 more time for a total of 4 stimulations. The activated T cells were isolated after the 4th stimulation and subjected to ELISPOT analysis for human IFN-γ production against their respective BFY3 peptide pools as shown. The blue bars show reactivity against the BFY3 peptide pools and the red bars are for an HLA-A2.1-binding HIV peptide as a negative control. Standard deviations are indicated. The experiment was repeated 2 times on activated T cells from different rounds of peptide stimulation with the similar results (FIG. 17A).
The BFY3 peptide pools were deconvoluted and studied in IFN-γ ELISPOT assays. Stimulation was performed as described earlier for the other antigens described. After 4 rounds of stimulation, the T cells from each culture were harvested and subjected to ELISPOT analysis for IFN-γ production with each individual peptide in each pool. FIG. 17B illustrates individual peptide reactivity for each specific pool.

[3] = system: targets pulsed with corresponding peptide pools; test: CTL killing of targets pulsed with BFY3 peptide pools or peptides; assay type: cell-based, human; settings: for Peptides eliciting CTL activity (peptide pulsed targets): BFY3 nonamer peptides, listing = result; for recognition of single peptides by CTL: BFY3 peptides, peptide-pulsed targets
Method: as §1

[4] = system: autologous T-cell-enriched PBMC preparations; test: IFN-γ ELISPOT of human T cells stimulated with AAC2-2 peptide pools; assay type: cell-based; settings: human T cells from HLA-A-0201 donors, after third and fourth round of stimulation with AAC2-2 peptide pools
Method: Using the AAC2-2 amino acid sequence, a library of 9-mer peptides predicted to bind to HLA-A-0201 was constructed (Table III; “N” indicates the sequence is not found within the mouse homolog, while “Y” indicates the sequence is found within the mouse homolog). Twenty-three of the peptides were dissolved in DMSO at 10 mg/ml (Table IV) and used in human PBMC cultures to test for their ability to elicit CD8 and CD4αβ T-cell responses in vitro.
Using GM-CSF and IL-4, dendritic cells (DC) were generated from peripheral blood monocytes of blood donors expressing HLA-A-0201.
These DC were used to stimulate autologous T-cell-enriched PBMC preparations. The T cells were re-stimulated with autologous PBMC and then re-stimulated with CD40-ligand-activated autologous B cells. […] Peptide group 6 includes the following peptides: […] (aa 36-44), […] (aa 41-49), and […] (aa 95-103).

[5] = system: peptide-loaded TAP-deficient T2 cells; test: CTL activity of AAC2-2 peptide pool-specific T-cell line; assay type: cell-based, human; settings: HLA-A-0201-restricted, T-cell line stimulated by peptide group 6
Method: Thus, it was determined that AAC2-2 peptides are immunogenic in the human immune system.

**Q.** HAIEEVPHV [CLP 3344] was tested. Which “killing of CosA2 cells transfected with BFY3 by CTL” value [1] did it give?
**A.** responsible for this cytotoxicity

**Q.** What about the “Peptides eliciting strong IFN-γ ELISPOT activity” value [2] of the same sequence?
**A.** HAIEEVPHV

**Q.** And the “Peptides eliciting CTL activity (peptide pulsed targets)” value [3]?
**A.** HAIEEVPHV

**Q.** And the “recognition of single peptides by CTL” value [3]?
**A.** strongly recognized

**Q.** How did the “IFN-γ production (ELISPOT)” value [4] turn out when ILTDVTLLV [EC5] was run?
**A.** dominant activity

**Q.** What about the “CTL activity killing peptide-loaded T2 target cells” value [5] of the same sequence?
**A.** dominant activity

**Q.** What about the “CTL activity killing peptide-loaded T2 target cells” value ([5]; listed as ILTDVTLLV) of the same sequence?
**A.** dominant peptide

**Q.** Which results are given for MLWKLTDNI [CLP 3320]?
**A.** killing of CosA2 cells transfected with BFY3 by CTL [1]: responsible for this cytotoxicity; Peptides eliciting strong IFN-γ ELISPOT activity [2]: MLWKLTDNI; Peptides eliciting CTL activity (peptide pulsed targets) [3]: MLWKLTDNI; recognition of single peptides by CTL [3]: strongly recognized
